Measured values from patent US3966732A, “Nitroimidazolyl pyrimidines” (Schering Aktiengesellschaft, priority 1972, dated 1976).
≈ marks a conversion by molar mass, not a printed value.

Assays:
Trichomonas vaginalis = assay: Minimum inhibitory concentration against Trichomonas vaginalis (own test); format: cell-based; settings: comparison with metronidazole
trichomonads [1] = settings: Grunberg and Titsworth; cited from earlier work
[2] = Grunberg and Titsworth; cited from earlier work
trichomonads [3] = settings: Lancini et al.; cited from earlier work

MIC (Trichomonas vaginalis) [µg/mL]	Structure (SMILES)	other results
0.2 (≈ 0.677 µM)	Cc1cc(-c2ccccc2)nc(-c2ncc([N+](=O)[O-])n2C)n1 [4-Methyl-6-phenyl-2-(5-nitro-1-methyl-2-imidazolyl)pyrimidine]	
0.4 (≈ 1.72 µM)	Cc1cc(C)nc(-c2ncc([N+](=O)[O-])n2C)n1 [4,6-Dimethyl-2-(5-nitro-1-methyl-2-imidazolyl)-pyrimidine]	
1.6 (≈ 9.35 µM)	Cc1ncc([N+](=O)[O-])n1CCO [Metronidazole, 5-nitro-2-methyl-1-(2-hydroxyethyl)-imidazole]	
0.2 (≈ 0.563 µM)	Cn1c([N+](=O)[O-])cnc1-c1nc(-c2cccs2)cc(C(F)(F)F)n1 [4-Trifluoromethyl-2-(5-nitro-1-methyl-2-imidazolyl)-6-(2-thienyl)-pyrimidin]	
0.1 (≈ 0.311 µM)	Cc1nc(-c2ncc([N+](=O)[O-])n2C)nc2c1CCc1ccccc1-2 [2-(5-Nitro-1-methyl-2-imidazolyl)-4-methyl-5,6-dihydrobenzo[h]quinazoline]	
	O=[N+]([O-])c1ncc[nH]1 [azomycin, 2-nitroimidazole]	ED50 value (in words, versus metronidazole) (trichomonads [1]): considerably less favorable; LD50 value (in words, versus metronidazole) [2]: considerably less favorable; effectiveness in vitro compared with metronidazole (trichomonads [3]): no more effective in vitro than metronidazole
